Data from patent US20200290950A1, “ALKAMIDE COMPOUNDS AND USES THEREOF” (NORTH CAROLINA STATE UNIVERSITY, priority 2017, published 2020).

Key:
RBL-2H3 cells [1] = test: LDH cytotoxicity assay; type: cell-based, rat; conditions: overnight treatment
Method: FIG. 7. A15 is not cytotoxic to RBL-2H3 cells. RBL-2H3 cells were plated and incubated overnight prior to stimulation. Cells were treated overnight with the indicated concentrations of A15 10 μg/mL cycloheximide as a positive control. Supernatants were collected and analyzed for LDH release using the Pierce LDH Cytotoxicity Kit. […] Statistical analysis was performed using a one-way ANOVA with Dunnett's post-hoc test, ***p<0.001.
RBL-2H3 cells were seeded into 96-well plates and incubated overnight prior to treatment with a range of A15 concentrations or 10 μg/mL cycloheximide. Supernatants were collected after 18 hr and analyzed for lactate dehydrogenase (LDH) activity using the commercially available Pierce LDH Cytotoxicity Assay Kit according to the manufacturer's instructions (Thermo Fisher Scientific). Briefly, in a 96-well plate, 50 μL of supernatant were incubated with 50 μL of reaction mixture containing a tetrazolium salt that is reduced to formazan in the presence LDH for 30 min protected from light. 50 μL of stop solution was added, and the absorbance was read at 490 nm with absorbance at 690 nm subtracted to remove background absorbance. LDH release from vehicle treated cells was used to determine spontaneous LDH release. Additionally, lysis buffer was used to determine maximum LDH release.

RBL-2H3 cells [2] = test: TNF-α ELISA, 18 hrs (Example 3); type: cell-based, rat; conditions: 1 μM A23187, 18 hours
Method: FIGS. 25A-25B. […] RBL-2H3 cells were plated overnight and stimulated with 1 μM A23187 in the absence or presence of each alkamide for 18 h. Culture supernatants were analyzed for TNF-α levels by ELISA and experiments were performed in triplicate (FIG. 25A). Percent inhibition of TNF-α secretion for each alkamide listed in FIG. 25B. *P<0.05, **P<0.01, ***P<0.001, one-way ANOVA with Dunnett's post hoc test compared to vehicle (FIG. 25A) or A15 (FIG. 25B).
RBL-2H3 cells (1.0×10^5 cells) were incubated overnight in a 24 well plate at 37° C. with 5% CO2. Cells were washed with 1×PBS and stimulated with 1 μM A23187 for 18 hrs in the absence or presence of each compound. The cells were centrifuged (1200×g, 5 min) and the supernatants were collected. The concentration of TNF-α in the supernatants were determined using the TNF-α ELISA kit.

[3] = target: cannabinoid type 2 receptor (CB2) (Homo sapiens, UniProt P34972); conditions: Raduner et al., 2006; cited from earlier work
β-hexosaminidase = β-hexosaminidase enzyme activity in RBL-2H3 cell lysates with p-NAG; type: biochemical, rat; conditions: 1 hr at 37° C.
Method: FIG. 8. […] RBL-2H3 cells were lysed with 0.1% Triton X-100 to release β-hex from the cells. Lysates were incubated for 1 hr at 37° C. with the substrate, p-NAG, in combination with the indicated concentrations of A15 or vehicle only. The absorbance at 405 nm was measured using a microplate spectrophotometer. Results shown are the means±SEM of triplicate wells from a representative experiment out of 2 independent experiments. Statistical analysis was performed using a one-way ANOVA with Dunnett's post-hoc test.

BMMCs = test: Fluo-4 calcium assay, BMMCs; type: cell-based, mouse
Method: (§1) FIGS. 3A-3H. A15 inhibits calcium influx in RBL-2H3 cells and BMMCs. RBL-2H3 cells (FIGS. 3A-3D) and BMMCs (FIGS. 3E-3H) were plated and incubated overnight prior to treatments. For DNP-BSA treatments, overnight incubation also included 1 μg/mL IgE anti-DNP. Prior to stimulation, cells were washed and loaded with the fluorescent, calcium-sensitive dye fluo-4 AM using the Fluo-4 AM Direct™ Calcium Assay Kit and fluorescence was measured on a microplate reader. Calcium influx was triggered in all experiments using either 1 μM A23187 or 50 ng/mL DNP-BSA, as indicated. Bar graphs represent the means±SEM of the Δ in RFU's at 1 min post-A23187- or DNP-BSA-stimulation from 3 independent experiments (FIGS. 3B, 3D, 3F, 3H). Statistical analysis was performed using a one-way ANOVA with Dunnett's post-hoc test, *p<0.05, **p<0.01, ***p<0.001.
(§2) RBL-2H3, BMMC, RAW 264.7, or Jurkat cells were plated in clear-bottom, black, 96-well plates (BioExpress, Kaysville, Utah) and incubated overnight with media only or media containing IgE anti-DNP. Cells were loaded with the calcium-sensitive dye fluo-4 AM using the Fluo-4 Direct™ Calcium Assay Kit (Thermo Fisher Scientific) according to the manufacturer's instructions by incubating at 37° C. for 30 min followed by 30 min at room temperature. Prior to stimulation, baseline fluorescent readings were measured from triplicate wells in 5 s intervals for 1 min using a Synergy HT microplate reader with 485/20 nm excitation and 528/20 nm emission filters. Cells were then treated with either 1 μM A23187 or 50 ng/mL DNP-BSA prepared in calcium- and magnesium-containing or calcium- and magnesium-free HBSS with 20 mM HEPES, and fluorescence was measured in 10 s intervals for 2 min. The final concentration of ethanol was 0.25% in these assays. The average baseline fluorescence of each well was subtracted from the stimulated fluorescent values to calculate the change (Δ) in RFU's and graphed as shown.

RBL-2H3 cells [4] = test: Fluo-4 calcium assay, RBL-2H3 cells (Example 1); type: cell-based, rat
Method: as §1
FIG. 9. A15 inhibits calcium influx in RBL-2H3 cells. Prior to stimulation, cells were washed and loaded with the fluorescent, calcium-sensitive dye fluo-4 AM using the Fluo-4 AM Direct™ Calcium Assay Kit. Cells were treated with 100 μM A15 (D, E, F), 0.25% ethanol only (vehicle) (A, B, C), 1 μM A23187 (G, H, I), and 100 μM A15 in combination with 1 μM A23187 (J, K, L) as indicated. Images were acquired at 30, 60, and 120 seconds, post-stimulation. Images are representative of several experiments.
as §2
Cells loaded with fluo-4 were treated and observed with an Axioskop 2 microscope (Zeiss, Oberkochen, Germany) using a fluorescent illuminator HXP-120 light source and images were acquired at 30, 60, or 120 sec after stimulation with a AxioCam MRc5 camera (Zeiss) and AxioVision software (Zeiss).

Chain of cannabinoid type 2 receptor (CB2) (P34972 whole entry, species assumed): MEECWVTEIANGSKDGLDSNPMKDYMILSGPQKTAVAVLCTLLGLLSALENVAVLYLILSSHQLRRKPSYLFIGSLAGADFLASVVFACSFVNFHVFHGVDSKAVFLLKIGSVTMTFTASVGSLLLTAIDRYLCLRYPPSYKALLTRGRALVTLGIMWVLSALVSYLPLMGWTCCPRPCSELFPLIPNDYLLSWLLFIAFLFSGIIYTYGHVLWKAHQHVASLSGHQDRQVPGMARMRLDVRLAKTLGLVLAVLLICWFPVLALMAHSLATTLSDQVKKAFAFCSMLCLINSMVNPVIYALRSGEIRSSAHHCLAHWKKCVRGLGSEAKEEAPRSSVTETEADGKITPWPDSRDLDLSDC

CCCCCCC/C=C/C=C/C(=O)NCC(C)C [A15, (2E,4E)-N-Isobutyldodeca-2,4-dienamide]
cytotoxic activity (LDH release) (RBL-2H3 cells [1]): no significant cytotoxic activity
percent inhibition of TNF-α secretion (RBL-2H3 cells [2]): 79%
binding to CB2 [3]: shown to bind
enzymatic activity of β-hex (production of chromogenic product from p-NAG) (β-hexosaminidase): not inhibited
calcium response (BMMCs; BMMCs treated with A23187): blocked the calcium response
calcium response (BMMCs; BMMCs treated with IgE anti-DNP and DNP-BSA): blocked the calcium response
calcium response to compound itself (BMMCs; BMMCs, A15 alone): did not cause a calcium response
calcium response (RBL-2H3 cells [4]; RBL-2H3 cells treated with IgE anti-DNP and DNP-BSA): blocked the calcium response
inhibition at 100 µM (RBL-2H3 cells [4]; Rattus norvegicus, 1 min, A23187-treated RBL-2H3 cells, 100 μM, 1 min post-stimulation, read-out: inhibition of rise in intracellular calcium): 83.2%
constitutive fluorescence in unstimulated cells, compared to vehicle (RBL-2H3 cells [4]; unstimulated RBL-2H3 cells, 100 μM, pixel intensity, n=5 fields): did not cause a significant change in the level of constitutive fluorescence
